# Source: patent US11505521B2 (Biothea Pharma, Inc., priority 2018, dated 2022)
# Like-named read-outs stand apart in the source and are kept apart here.
# Assays:
# [1] = Description: The stability of the pharmaceutical compositions of Example 3 were tested. The stability studies were conducted on packaged epinephrine salts at 25° C./RH 60% and 40° C./RH 75% conditions, as well as samples without packaging and exposed to light (4500 Lux) for one month. The appearance, assay content, and related substances were examined at 5, 7, 14 and 30 days.
# The assay content was tested using Sartorius balances (Model SQP), an INESA pH meter (Model PHS-3E), a Thermo HPLC (UltiMate 3000 System, UV Wavelength: 205 nm), and Phenomenex Luna columns (5 μm C18 (2), 4.6×250 mm). The column temperature was 40° C., and the autosampler temperature was room temperature. The injection volume was 5 μL.
# Mobile Phase A was prepared by weighing 4.0 g tetramethylammonium bisulfate (MERYER, Batch No. 77957139) and 1.1 sodium 1-heptasulfonate (Admas-beta, Batch No. P1343755), and transferring the materials to a flask. 2 mL of 0.1 mol/L EDTA solution (Brand: Sinopharm Chemical Reagent Co., Ltd., Batch No. 20150410) was added to the flask and the volume was adjusted to 950 mL using water. The solution was mixed and adjusted to a pH of 3.5 with 0.1N sodium hydroxide solution (Brand: Enox, Batch No. 20161201). Mobile Phase B was prepared using methanol. The isocratic elution was used in a proportion of A/B of 85/15. The run time was 10 minutes.
# The assay content was analyzed by dissolving 20 mg of each sample to be examined in 50 mL of Mobile Phase A (0.4 mg/mL) as assay test solution. The sample was used and tested right after it was ready and was protected from light.
# The purity was tested using Sartorius balances (Model SQP), an INESA pH meter (Model PHS-3E), a Thermo HPLC (UltiMate 3000 System, UV Wavelength: 205 nm), and PhenomenexSynergi columns (4 μm Polar-RP 80 A 250×4.6 mm). The column temperature was 30° C., and the autosampler temperature was room temperature. The injection volume was 5 μL.
# Mobile Phase A was prepared by weighing 1.136 g of potassium dihydrogen orthophosphate (Brand: CNW, Batch No. A1040040) and 1.74 g of dipotassium hydrogen orthophosphate (Brand: Ourchem, Batch No. 20160219) and transferring into 1000 mL of water. The pH was adjusted to 3.0±0.05 with orthophosphoric acid (Brand: Ourchem, Batch No. 4112K060). The solution was filtered through a 0.45 μm membrane and degassed. Mobile Phase B was prepared using methanol. The run time was 50 minutes.
# The purity was analyzed by dissolving 10 mg of each sample to be examined in 25 mL of Mobile Phase A (0.4 mg/mL) as purity and related substance test solution. The sample was used and tested right after it was ready and was protected from light.
# [2] = water, 25° C.
# Description: The sample was dissolved and diluted to the volume with water and mixed well. The sample was left in an oven at 25° C., and samples were collected at 0 hours, 24 hours, 48 hours, 72 hours, 96 hours, and 120 hours. The diluent (mobile phase) used for the study was prepared by mixing about 1.36 g of potassium dihydrogen orthophosphate and 1.74 g of dipotassium hydrogen orthophosphate in a 1000 mL volumetric flask, and adjusting the pH to 3.0 with orthophosphoric acid. The appearance and purity of the samples were tested.
# [3] = light 4500 Lux, under air, 0 days
# [4] = light 4500 Lux, under air, 5 days
# [5] = light 4500 Lux, under air, 7 days
# [6] = light 4500 Lux, under air, 14 days
# [7] = light 4500 Lux, under air, 30 days
compound,measurement,setting,value
CNC[C@H](O)c1ccc(O)c(O)c1 [epinephrine bitartrate],Appearance,"[1]; 25° C./60% RH, 0 days",Off-white
same,Content (%),"[1]; 25° C./60% RH, 0 days",100.00%
same,Related substance (%),"[1]; 25° C./60% RH, 0 days",0.08%
same,Appearance,"[1]; 25° C./60% RH, 5 days",Off-white
same,Content (%),"[1]; 25° C./60% RH, 5 days",100.05%
same,Related substance (%),"[1]; 25° C./60% RH, 5 days",0.08%
same,Appearance,"[1]; 25° C./60% RH, 7 days",Off-white
same,Content (%),"[1]; 25° C./60% RH, 7 days",100.83%
same,Related substance (%),"[1]; 25° C./60% RH, 7 days",0.08%
same,Appearance,"[1]; 25° C./60% RH, 14 days",Off-white
same,Content (%),"[1]; 25° C./60% RH, 14 days",99.82%
same,Related substance (%),"[1]; 25° C./60% RH, 14 days",0.09%
same,Appearance,"[1]; 25° C./60% RH, 30 days",Off-white
same,Content (%),"[1]; 25° C./60% RH, 30 days",100.33%
same,Related substance (%),"[1]; 25° C./60% RH, 30 days",0.09%
same,Appearance,"[1]; 40° C./75% RH, 0 days",Off-white
same,Content (%),"[1]; 40° C./75% RH, 0 days",100.00%
same,Related substance (%),"[1]; 40° C./75% RH, 0 days",0.08%
same,Appearance,"[1]; 40° C./75% RH, 5 days",Off-white
same,Content (%),"[1]; 40° C./75% RH, 5 days",100.43%
same,Related substance (%),"[1]; 40° C./75% RH, 5 days",0.09%
same,Appearance,"[1]; 40° C./75% RH, 7 days",Off-white
same,Content (%),"[1]; 40° C./75% RH, 7 days",100.84%
same,Related substance (%),"[1]; 40° C./75% RH, 7 days",0.09%
same,Appearance,"[1]; 40° C./75% RH, 14 days",Off-white
same,Content (%),"[1]; 40° C./75% RH, 14 days",100.17%
same,Related substance (%),"[1]; 40° C./75% RH, 14 days",0.09%
same,Appearance,"[1]; 40° C./75% RH, 30 days",Off-white
same,Content (%),"[1]; 40° C./75% RH, 30 days",100.96%
same,Related substance (%),"[1]; 40° C./75% RH, 30 days",0.10%
same,Appearance,[1]; [3],Off-white
same,Content (%),[1]; [3],100.00%
same,Related substance (%),[1]; [3],0.08%
same,Appearance,[1]; [4],Off-white
same,Content (%),[1]; [4],99.71%
same,Related substance (%),[1]; [4],0.10%
same,Appearance,[1]; [5],Off-white
same,Content (%),[1]; [5],102.34%
same,Related substance (%),[1]; [5],0.10%
same,Appearance,[1]; [6],Off-white
same,Content (%),[1]; [6],100.43%
same,Related substance (%),[1]; [6],0.09%
same,Appearance,[1]; [7],Off-white
same,Content (%),[1]; [7],100.39%
same,Related substance (%),[1]; [7],0.09%
CNC[C@H](O)c1ccc(O)c(O)c1 [epinephrine malonate],Appearance,"[1]; 25° C./60% RH, 0 days",Off-white
same,Content (%),"[1]; 25° C./60% RH, 0 days",100.00%
same,Related substance (%),"[1]; 25° C./60% RH, 0 days",0.01%
same,Appearance,"[1]; 25° C./60% RH, 5 days",Off-white
same,Content (%),"[1]; 25° C./60% RH, 5 days",99.94%
same,Related substance (%),"[1]; 25° C./60% RH, 5 days",0.02%
same,Appearance,"[1]; 25° C./60% RH, 7 days",Off-white
same,Content (%),"[1]; 25° C./60% RH, 7 days",99.62%
same,Related substance (%),"[1]; 25° C./60% RH, 7 days",0.02%
same,Appearance,"[1]; 25° C./60% RH, 14 days",Off-white
same,Content (%),"[1]; 25° C./60% RH, 14 days",98.81%
same,Related substance (%),"[1]; 25° C./60% RH, 14 days",0.05%
same,Appearance,"[1]; 25° C./60% RH, 30 days",Off-white
same,Content (%),"[1]; 25° C./60% RH, 30 days",100.64%
same,Related substance (%),"[1]; 25° C./60% RH, 30 days",0.05%
same,Appearance,"[1]; 40° C./75% RH, 0 days",Off-white
same,Content (%),"[1]; 40° C./75% RH, 0 days",100.00%
same,Related substance (%),"[1]; 40° C./75% RH, 0 days",0.01%
same,Appearance,"[1]; 40° C./75% RH, 5 days",Off-white
same,Content (%),"[1]; 40° C./75% RH, 5 days",100.25%
same,Related substance (%),"[1]; 40° C./75% RH, 5 days",0.03%
same,Appearance,"[1]; 40° C./75% RH, 7 days",Off-white
same,Content (%),"[1]; 40° C./75% RH, 7 days",101.64%
same,Related substance (%),"[1]; 40° C./75% RH, 7 days",0.02%
same,Appearance,"[1]; 40° C./75% RH, 14 days",Off-white
same,Content (%),"[1]; 40° C./75% RH, 14 days",99.63%
same,Related substance (%),"[1]; 40° C./75% RH, 14 days",0.08%
same,Appearance,"[1]; 40° C./75% RH, 30 days",Off-white
same,Content (%),"[1]; 40° C./75% RH, 30 days",99.87%
same,Related substance (%),"[1]; 40° C./75% RH, 30 days",0.11%
same,Appearance,[1]; [3],Off-white
same,Content (%),[1]; [3],100.00%
same,Related substance (%),[1]; [3],0.01%
same,Appearance,[1]; [4],Off-white
same,Content (%),[1]; [4],99.81%
same,Related substance (%),[1]; [4],0.03%
same,Appearance,[1]; [5],Off-white
same,Content (%),[1]; [5],98.76%
same,Related substance (%),[1]; [5],0.03%
same,Appearance,[1]; [6],Off-white
same,Content (%),[1]; [6],99.83%
same,Related substance (%),[1]; [6],0.06%
same,Appearance,[1]; [7],Off-white
same,Content (%),[1]; [7],100.64%
same,Related substance (%),[1]; [7],0.04%
same,Appearance,[2]; 0 hours,Colorless liquid
same,Purity,[2]; 0 hours,99.97%
same,Appearance,[2]; 24 hours,Colorless liquid
same,Purity,[2]; 24 hours,99.79%
same,Appearance,[2]; 48 hours,Colorless liquid
same,Purity,[2]; 48 hours,99.63%
same,Appearance,[2]; 72 hours,Colorless liquid
same,Purity,[2]; 72 hours,99.51%
same,Appearance,[2]; 96 hours,Colorless liquid
same,Purity,[2]; 96 hours,99.42%
same,Appearance,[2]; 120 hours,Colorless liquid
same,Purity,[2]; 120 hours,99.34%
epinephrine maleate,Appearance,"[1]; 25° C./60% RH, 0 days",Off-white
same,Content (%),"[1]; 25° C./60% RH, 0 days",100.00%
same,Related substance (%),"[1]; 25° C./60% RH, 0 days",0.17%
same,Appearance,"[1]; 25° C./60% RH, 5 days",Off-white
same,Content (%),"[1]; 25° C./60% RH, 5 days",99.50%
same,Related substance (%),"[1]; 25° C./60% RH, 5 days",0.18%
same,Appearance,"[1]; 25° C./60% RH, 7 days",Off-white
same,Content (%),"[1]; 25° C./60% RH, 7 days",99.97%
same,Related substance (%),"[1]; 25° C./60% RH, 7 days",0.17%
same,Appearance,"[1]; 25° C./60% RH, 14 days",Off-white
same,Content (%),"[1]; 25° C./60% RH, 14 days",99.43%
same,Related substance (%),"[1]; 25° C./60% RH, 14 days",0.16%
same,Appearance,"[1]; 25° C./60% RH, 30 days",Off-white
same,Content (%),"[1]; 25° C./60% RH, 30 days",100.69%
same,Related substance (%),"[1]; 25° C./60% RH, 30 days",0.17%
same,Appearance,"[1]; 40° C./75% RH, 0 days",Off-white
same,Content (%),"[1]; 40° C./75% RH, 0 days",100.00%
same,Related substance (%),"[1]; 40° C./75% RH, 0 days",0.17%
same,Appearance,"[1]; 40° C./75% RH, 5 days",Off-white
same,Content (%),"[1]; 40° C./75% RH, 5 days",99.30%
same,Related substance (%),"[1]; 40° C./75% RH, 5 days",0.17%
same,Appearance,"[1]; 40° C./75% RH, 7 days",Off-white
same,Content (%),"[1]; 40° C./75% RH, 7 days",97.76%
same,Related substance (%),"[1]; 40° C./75% RH, 7 days",0.18%
same,Appearance,"[1]; 40° C./75% RH, 14 days",Off-white
same,Content (%),"[1]; 40° C./75% RH, 14 days",99.24%
same,Related substance (%),"[1]; 40° C./75% RH, 14 days",0.16%
same,Appearance,"[1]; 40° C./75% RH, 30 days",Off-white
same,Content (%),"[1]; 40° C./75% RH, 30 days",100.19%
same,Related substance (%),"[1]; 40° C./75% RH, 30 days",0.16%
same,Appearance,[1]; [3],Off-white
same,Content (%),[1]; [3],100.00%
same,Related substance (%),[1]; [3],0.17%
same,Appearance,[1]; [4],Off-white
same,Content (%),[1]; [4],99.86%
same,Related substance (%),[1]; [4],0.18%
same,Appearance,[1]; [5],Off-white
same,Content (%),[1]; [5],100.61%
same,Related substance (%),[1]; [5],0.19%
same,Appearance,[1]; [6],Off-white
same,Content (%),[1]; [6],99.84%
same,Related substance (%),[1]; [6],0.16%
same,Appearance,[1]; [7],Off-white
same,Content (%),[1]; [7],100.47%
same,Related substance (%),[1]; [7],0.17%
